Measurements reported in BindingDB's records for doi:10.1080/14756360701536455 (Pcsir Laboratories Complex, 2008).

Key:
[1] = biological target: T1, Seed linoleate 13S-lipoxygenase-1 (Glycine max, UniProt P08170); experiment: Lipoxygenase Inhibition Assay; conditions: pH 8; 25 °C
T1 sequence (P08170 whole entry): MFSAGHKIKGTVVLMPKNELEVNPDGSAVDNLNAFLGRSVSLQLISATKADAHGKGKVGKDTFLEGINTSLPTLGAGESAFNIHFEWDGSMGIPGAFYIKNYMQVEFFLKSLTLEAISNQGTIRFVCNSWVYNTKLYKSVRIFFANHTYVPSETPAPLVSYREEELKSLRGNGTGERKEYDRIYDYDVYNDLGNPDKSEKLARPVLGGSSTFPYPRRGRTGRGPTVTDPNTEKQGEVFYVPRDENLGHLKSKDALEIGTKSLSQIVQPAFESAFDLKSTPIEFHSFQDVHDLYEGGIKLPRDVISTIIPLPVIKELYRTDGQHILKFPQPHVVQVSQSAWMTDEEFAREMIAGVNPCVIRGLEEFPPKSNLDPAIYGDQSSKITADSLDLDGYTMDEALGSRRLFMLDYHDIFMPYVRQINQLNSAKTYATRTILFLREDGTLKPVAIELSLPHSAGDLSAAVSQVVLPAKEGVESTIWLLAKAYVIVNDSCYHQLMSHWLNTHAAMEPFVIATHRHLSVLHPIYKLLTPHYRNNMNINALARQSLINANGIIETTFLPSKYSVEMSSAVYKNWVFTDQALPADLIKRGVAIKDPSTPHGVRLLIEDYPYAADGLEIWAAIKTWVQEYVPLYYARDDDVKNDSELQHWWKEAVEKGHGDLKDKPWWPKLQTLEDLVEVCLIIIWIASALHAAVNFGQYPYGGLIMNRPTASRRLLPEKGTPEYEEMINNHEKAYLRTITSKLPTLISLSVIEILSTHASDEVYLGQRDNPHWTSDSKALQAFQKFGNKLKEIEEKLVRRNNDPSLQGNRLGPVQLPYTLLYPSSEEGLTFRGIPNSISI
Protocol: LOX inhibiting activity was measured by modifying the spectrophotometric method developed by Tappel.

[2] = biological target: Carboxylic ester hydrolase (Equus caballus, UniProt Q9N1N9); experiment: Cholinesterase Inhibition Assay; conditions: pH 8; 25 °C
Chain of Carboxylic ester hydrolase (Q9N1N9 whole entry): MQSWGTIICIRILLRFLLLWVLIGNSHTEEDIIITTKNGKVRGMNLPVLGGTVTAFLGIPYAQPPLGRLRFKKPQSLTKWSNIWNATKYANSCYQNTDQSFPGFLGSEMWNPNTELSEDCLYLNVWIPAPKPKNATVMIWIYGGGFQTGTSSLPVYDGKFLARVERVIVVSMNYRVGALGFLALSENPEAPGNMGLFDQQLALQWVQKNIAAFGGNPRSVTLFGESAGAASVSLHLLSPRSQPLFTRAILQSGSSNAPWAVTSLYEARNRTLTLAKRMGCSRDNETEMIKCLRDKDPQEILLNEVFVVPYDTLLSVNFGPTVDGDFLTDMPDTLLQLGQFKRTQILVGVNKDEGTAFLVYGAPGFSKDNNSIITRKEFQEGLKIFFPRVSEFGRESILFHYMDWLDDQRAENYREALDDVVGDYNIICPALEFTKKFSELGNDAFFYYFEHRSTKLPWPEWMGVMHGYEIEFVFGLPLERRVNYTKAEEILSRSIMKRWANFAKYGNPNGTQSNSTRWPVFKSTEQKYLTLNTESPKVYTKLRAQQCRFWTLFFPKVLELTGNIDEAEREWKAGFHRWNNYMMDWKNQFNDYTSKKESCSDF
Protocol: Butyrylcholinesterase activity-inhibiting activities were measured by a slightly modified spectrophotometric method developed by Ellman. DTNB was used for the measurement of cholinesterase activity and butyrylthiocholine chloride was used as a substrate.

Q: How did the IC50 [1] turn out when `N#CC(=C1Nc2ccccc2C1=O)c1c[nH]c2ccccc12` [2-[Cyano(3-indolyl)methylene]-3-indolone, 1] was run?
A: The IC50 was 39.1 µM.

Q: And the IC50 [2]?
A: Its IC50 is 23.5 µM.

Q: For `C=CC(CC(=NOS(=O)(=O)O)SC1OC(CO)C(O)C(O)C1O)OC(=O)CC1(O)C(=O)Nc2ccccc21` (stereo not drawn) [3'-Hydroxyepiglucoisatisin, 3], which IC50 [1] is on record?
A: The IC50 was 30.6 µM.

Q: What about the IC50 [2] of the same compound?
A: Its IC50 is 16.3 µM.

Q: Which results are given for `C=CC(CC(=NOS(=O)(=O)O)SC1OC(CO)C(O)C(O)C1O)OC(=O)CC1C(=O)Nc2ccccc21` (stereo not drawn) [Epiglucoisatisin, 2]?
A: IC50 [1]: 33.7 µM; IC50 [2]: 19.7 µM

Q: `COc1ccc2c3c1O[C@H]1C[C@@H](O)C=C(CN(C)C2)[C@H]31` [Galanthamine, 7] was tested. Which IC50 [2] did it give?
A: Its IC50 is 8.5 µM.

Q: Which results are given for `O=C(O)CC(=O)OCC1OC(Oc2c[nH]c3ccccc23)C(O)C(=O)C1O` (stereo not drawn) [Isatan A, 5]?
A: IC50 [1]: 49.3 µM; IC50 [2]: 43.4 µM

Q: Which IC50 [1] does the source give for `O=C1C(O)C(CO)OC(Oc2c[nH]c3ccccc23)C1O` (stereo not drawn) [Isatan B, 6] here?
A: The IC50 was 53.8 µM.

Q: What about the IC50 [2] of the same compound?
A: The IC50 was 47.6 µM.

Q: Which IC50 [1] does the source give for `O=S(=O)(O)ON=C(Cc1cc2ccccc2n1S(=O)(=O)O)SC1OC(CO)C(O)C(O)C1O` (stereo not drawn) [Sulfoglucobrassicin, 4] here?
A: The IC50 was 41.9 µM.

Q: And the IC50 [2]?
A: The IC50 was 24.8 µM.
